Experimental data published in patent US6737383B1, “Herbicidal oxadiazolidines” (priority 1999, dated 2004).

Legend:
morningglory = test: Test B pre/postemergence morningglory; assay type: in vivo, Ipomoea hederacea
Procedure, shortened: (§1)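 Herbicidal effect was estimated by eye on a ten-point control scale after plants spent twelve to sixteen days in a greenhouse following soil or foliar treatment. Foliar sprays targeted plants at one to four leaves; all doses were formulated in a non-phytotoxic solvent with surfactant.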

wild oat = test: Test B pre/postemergence wild oat; assay type: in vivo, Avena fatua
Procedure, shortened: as §1

crabgrass = test: Test B pre/postemergence crabgrass; assay type: in vivo, Digitaria sanguinalis
Procedure, shortened: as §1

purple nutsedge = test: Test B pre/postemergence purple nutsedge; assay type: in vivo, Cyperus rotundus
Procedure, shortened: as §1

rape = test: Test B pre/postemergence rape; assay type: in vivo, Brassica napus
Procedure, shortened: as §1

giant foxtail = test: Test B pre/postemergence giant foxtail; assay type: in vivo, Setaria faberii
Procedure, shortened: as §1

sugar beet = test: Test B pre/postemergence sugar beet; assay type: in vivo, Beta vulgaris
Procedure, shortened: as §1

pigweed = test: Test B pre/postemergence pigweed; assay type: in vivo, Amaranthus retroflexus
Procedure, shortened: as §1

bedstraw = test: Test B pre/postemergence bedstraw; assay type: in vivo, Galium aparine
Procedure, shortened: as §1

corn = test: Test B pre/postemergence corn; assay type: in vivo, Zea mays
Procedure, shortened: as §1

surinam grass = test: Test B pre/postemergence surinam grass; assay type: in vivo, Brachiaria decumbens
Procedure, shortened: as §1

velvetleaf = test: Test B pre/postemergence velvetleaf; assay type: in vivo, Abutilon theophrasti
Procedure, shortened: as §1

cocklebur = test: Test B pre/postemergence cocklebur; assay type: in vivo, Xanthium strumarium
Procedure, shortened: as §1

wheat = test: Test B pre/postemergence wheat; assay type: in vivo, Triticum aestivum
Procedure, shortened: as §1

soybean = test: Test B pre/postemergence soybean; assay type: in vivo, Glycine max
Procedure, shortened: as §1

blackgrass = test: Test B pre/postemergence blackgrass; assay type: in vivo, Alopecurus myosuroides
Procedure, shortened: as §1

[1] = Postemergence, Rate 62 g/ha, scale 0 to 10, 0 is no effect, 10 is complete control
[2] = Postemergence, Rate 125 g/ha, scale of 0 to 10 where 0 is no effect and 10 is complete control
[3] = Preemergence, Rate 125 g/ha, scale of 0 to 10 where 0 is no effect and 10 is complete control
[4] = Preemergence, Rate 250 g/ha, scale 0 (no effect) to 10 (complete control)
[5] = Rate 62 g/ha, Preemergence, scale 0 to 10
[6] = Rate 250 g/ha, Postemergence, scale 0 to 10, 0 is no effect, 10 is complete control
[7] = Rate 500 g/ha, Postemergence, scale 0 to 10, 0 is no effect, 10 is complete control
[8] = Rate 500 g/ha, Preemergence, scale 0 to 10 (0 no effect, 10 complete control)

C#CCn1c(=O)on(C(=O)N(c2ccc(F)cc2)C(C)C)c1=O [Compound 743]
6: Sugarbeets plant response rating (sugar beet; [8]) | Wheat plant response rating (wheat; [7])
3: Morningglory plant response rating (morningglory; [2]) | Wild oats plant response rating (wild oat; [7]) | Nutsedge plant response rating (purple nutsedge; [6]) | Rape plant response rating (rape; [7]) | Plant response rating, B. signalgrass (surinam grass; [3]) | B. signalgrass plant response rating (surinam grass; [6]) | Velvetleaf plant response rating (velvetleaf; [4]) | Velvetleaf plant response rating (velvetleaf; [8]) | Cocklebur plant response rating (cocklebur; [7]) | Wheat plant response rating (wheat; [6]) | Plant response rating, Blackgrass (blackgrass; [1])
7: Crabgrass plant response rating (crabgrass; [6]) | Plant response rating, Giant foxtail (giant foxtail; [1]) | Giant foxtail plant response rating (giant foxtail; [2]) | Redroot pigweed plant response rating (pigweed; [5]) | B. signalgrass plant response rating (surinam grass; [7])
2: Morningglory plant response rating (morningglory; [6]) | Plant response rating, Crabgrass (crabgrass; [1]) | Nutsedge plant response rating (purple nutsedge; [2]) | Nutsedge plant response rating (purple nutsedge; [4]) | Plant response rating, Sugarbeets (sugar beet; [3]) | Plant response rating, Velvetleaf (velvetleaf; [3])
5: Plant response rating, Morningglory (morningglory; [1]) | Plant response rating, Wild oats (wild oat; [3]) | Wild oats plant response rating (wild oat; [4]) | Wild oats plant response rating (wild oat; [5]) | Crabgrass plant response rating (crabgrass; [2]) | Plant response rating, Rape (rape; [3]) | Rape plant response rating (rape; [5]) | Redroot pigweed plant response rating (pigweed; [6]) | Wheat plant response rating (wheat; [8]) | Blackgrass plant response rating (blackgrass; [2]) | Blackgrass plant response rating (blackgrass; [6]) | Blackgrass plant response rating (blackgrass; [7])
0: Plant response rating, Morningglory (morningglory; [3]) | Morningglory plant response rating (morningglory; [4]) | Morningglory plant response rating (morningglory; [5]) | Morningglory plant response rating (morningglory; [8]) | Plant response rating, Wild oats (wild oat; [1]) | Wild oats plant response rating (wild oat; [2]) | Wild oats plant response rating (wild oat; [6]) | Plant response rating, Nutsedge (purple nutsedge; [1]) | Nutsedge plant response rating (purple nutsedge; [5]) | Plant response rating, Rape (rape; [1]) | Rape plant response rating (rape; [2]) | Rape plant response rating (rape; [6]) | Plant response rating, Sugarbeets (sugar beet; [1]) | Sugarbeets plant response rating (sugar beet; [2]) | Sugarbeets plant response rating (sugar beet; [5]) | Plant response rating, Redroot pigweed (pigweed; [1]) | Redroot pigweed plant response rating (pigweed; [2]) | Plant response rating, Bedstraw (bedstraw; [1]) | Bedstraw plant response rating (bedstraw; [2]) | Plant response rating, Bedstraw (bedstraw; [3]) | Bedstraw plant response rating (bedstraw; [4]) | Bedstraw plant response rating (bedstraw; [5]) | Plant response rating, Corn (corn; [1]) | Corn plant response rating (corn; [2]) | Plant response rating, Corn (corn; [3]) | Corn plant response rating (corn; [4]) | Corn plant response rating (corn; [5]) | Corn plant response rating (corn; [6]) | Corn plant response rating (corn; [7]) | Corn plant response rating (corn; [8]) | Plant response rating, B. signalgrass (surinam grass; [1]) | B. signalgrass plant response rating (surinam grass; [2]) | Plant response rating, Velvetleaf (velvetleaf; [1]) | Velvetleaf plant response rating (velvetleaf; [2]) | Velvetleaf plant response rating (velvetleaf; [5]) | Velvetleaf plant response rating (velvetleaf; [6]) | Plant response rating, Cocklebur (cocklebur; [1]) | Cocklebur plant response rating (cocklebur; [2]) | Plant response rating, Cocklebur (cocklebur; [3]) | Cocklebur plant response rating (cocklebur; [4]) | Cocklebur plant response rating (cocklebur; [5]) | Cocklebur plant response rating (cocklebur; [6]) | Plant response rating, Wheat (wheat; [1]) | Wheat plant response rating (wheat; [2]) | Plant response rating, Wheat (wheat; [3]) | Wheat plant response rating (wheat; [4]) | Wheat plant response rating (wheat; [5]) | Plant response rating, Soybean (soybean; [1]) | Soybean plant response rating (soybean; [2]) | Plant response rating, Soybean (soybean; [3]) | Soybean plant response rating (soybean; [4]) | Soybean plant response rating (soybean; [5]) | Soybean plant response rating (soybean; [8])
4: Sugarbeets plant response rating (sugar beet; [4]) | Sugarbeets plant response rating (sugar beet; [6]) | Sugarbeets plant response rating (sugar beet; [7]) | Bedstraw plant response rating (bedstraw; [6]) | B. signalgrass plant response rating (surinam grass; [4]) | Velvetleaf plant response rating (velvetleaf; [7]) | Soybean plant response rating (soybean; [6]) | Soybean plant response rating (soybean; [7])
9: Wild oats plant response rating (wild oat; [8]) | Plant response rating, Crabgrass (crabgrass; [3]) | Crabgrass plant response rating (crabgrass; [4]) | Crabgrass plant response rating (crabgrass; [5]) | Crabgrass plant response rating (crabgrass; [7]) | Crabgrass plant response rating (crabgrass; [8]) | Nutsedge plant response rating (purple nutsedge; [7]) | Nutsedge plant response rating (purple nutsedge; [8]) | Rape plant response rating (rape; [4]) | Rape plant response rating (rape; [8]) | Plant response rating, Giant foxtail (giant foxtail; [3]) | Giant foxtail plant response rating (giant foxtail; [4]) | Giant foxtail plant response rating (giant foxtail; [5]) | Giant foxtail plant response rating (giant foxtail; [8]) | Plant response rating, Redroot pigweed (pigweed; [3]) | Redroot pigweed plant response rating (pigweed; [4]) | Blackgrass plant response rating (blackgrass; [4]) | Blackgrass plant response rating (blackgrass; [8])
8: Giant foxtail plant response rating (giant foxtail; [6]) | Giant foxtail plant response rating (giant foxtail; [7]) | Redroot pigweed plant response rating (pigweed; [7]) | Bedstraw plant response rating (bedstraw; [7]) | Bedstraw plant response rating (bedstraw; [8]) | B. signalgrass plant response rating (surinam grass; [8]) | Plant response rating, Blackgrass (blackgrass; [3]) | Blackgrass plant response rating (blackgrass; [5])
10: Morningglory plant response rating (morningglory; [7]) | Redroot pigweed plant response rating (pigweed; [8]) | Cocklebur plant response rating (cocklebur; [8])
